Assay results reported in patent US20260102413A1, “TREATING PAIN ASSOCIATED WITH CENTRAL SENSITIZATION” (Medicon Pharmaceuticals, Inc., priority 2022, published 2026).

Assays:
[1] = test system: mice with paclitaxel-induced neuropathic pain (CIPN); experiment: von Frey paw withdrawal threshold (mechanical allodynia), paclitaxel-induced CIPN / central sensitization, treatment of established pain, topical test compounds; format: in vivo, mouse; details: for PWT: naproxen 2.4%, aspirin […], ibuprofen 2.5% topical both hind paws 3x/day 14 days; for Paw-withdrawal threshold, g Mean ± SEM, Day 0: group value after paclitaxel, before study drug
Protocol: Paw withdrawn, licking or shaking were considered positive responses.
(§1) The first doses were administered 5 days after the last administration of paclitaxel (i.e., at day 0).
The PWT test was performed prior to the administration of paclitaxel (day −8) to establish the threshold in mice without neuropathic pain associated with CIPN (the value shown is an average of the PWT in all groups at day −8).
Pain associated with CIPN was established in line with the experiments disclosed herein. Mice were treated with naproxen 2.4% (equimolar to PN 5%), aspirin 1.7% (equimolar to PA2 5%); or ibuprofen 2.5% (equimolar to PI 5%) or vehicle applied topically to both hind paws 3×/day for 14 days.
CIPN was induced in mice with chemotherapeutic agents using established protocols (Carozzi et al, 2010; Currie et al, 2019; Eldridge et al, 2020).
The first doses were administered 1 day after the last administration of paclitaxel (i.e., at day 0).
as §1
The PWT test was performed on day 21, at the end of the experiment, but was also additionally determined on day 14 for LXIX.

[2] = test system: mice with paclitaxel-induced CIPN; experiment: thermal allodynia (paw withdrawal latency, radiant heat), paclitaxel CIPN model; format: in vivo, mouse; details: NO-sulindac, HS-sulindac 5% topical 3x/day
Protocol: Group 3: paclitaxel pluse sulindac (n=8)
Thermal allodynia was also determined for the mice study groups below (with 8 mice per group): • 1. Group 1: naïve mice (i.e. no paclitaxel) • 2. Group 2: paclitaxel only • 3. Group 3: paclitaxel plus vehicle • 4. Group 4: paclitaxel plus NO-sulindace • 5. Group 5: paclitaxel plus thiol-sulindac

[3] = test system: mice with paclitaxel-induced CIPN; experiment: von Frey PWT, paclitaxel CIPN model, orally administered compounds; format: in vivo, mouse; details: for PWT, g: 100 mg/kg oral gavage 3x/day; for PWT: oral gavage 3x/day 6 days: ibuprofen 40, PI 80, PIA 80, PGI 60 mg/kg, day 6
Excerpt: CIPN was induced in mice with chemotherapeutic agents using established protocols (Carozzi et al, 2010; Currie et al, 2019; Eldridge et al, 2020). […] This dosing regimen of paclitaxel produces pain associated with CIPN with time courses that are similar to those of pain after paclitaxel administration in cancer patients.
Group 1: naïve mice (i.e. no paclitaxel, n=8) • 2. Group 2: paclitaxel only (n=8) • 3. Group 3: paclitaxel plus vehicle (n=8) • 4. […] Group 5: paclitaxel pluse sulindac (n=8)
The PWT test was performed on day 7.
Phospho-naproxen (PN) and naproxen were given by oral gavage, three times a day for 7 days. Their doses were as follows: PN, 65 mg/kg; naproxen, 35 mg/kg (equimolar to PN). The response of mechanical allodynia to phospho-naproxen (PN) and naproxen was tested on day 7.
(§2) This dosing regimen of paclitaxel produces pain associated with CIPN with time courses that are similar to those of pain after paclitaxel administration in cancer patients.
Phospho-ibuprofen (PI) (Formula III), phospho-glycerol-ibuprofen (PGI) (Formula LXXI), phospho-ibuprofen-amide (PIA) (Formula XI), and ibuprofen were given by oral gavage, three times a day for 6 days. Their doses were as follows: ibuprofen, 40 mg/kg; PI, 80 mg/kg; PIA, 80 mg/kg; all three were equimolar.
The response of mechanical allodynia to these compounds was tested on day 6, using the PWT test.
as §2
NO-sulindac (Formula XLIV), HS-sulindac (Formula XXXIV), platinum-sulindac (Formula LXVII), and NOSH-1 (Formula LIX) were given by oral gavage, three times a day throughout the study period. Their doses were all 100 mg/kg.
The response of mechanical allodynia to these compounds was tested on the days set out in the table below, via the PWT test.
LXIX was given by oral gavage, once a day for 14 days at a dose of 100 mg/kg.
The response of mechanical allodynia to these compounds was tested on day 14, via the PWT test.

[4] = test system: mice with chronic constriction injury (PTPN); experiment: von Frey PWT, CCI model of PTPN, orally administered compounds; format: in vivo, mouse; details: for PWT, g Mean ± SEM: oral 3x/day 14 days: PI 80, PIA 80, ibuprofen 40 mg/kg, day 14
Protocol: Phospho-ibuprofen (PI) (Formula III), phospho-ibuprofen-amide (PIA) (Formula XI), ibuprofen and vehicle control were all administered orally, three times a day for 14 days. Their doses were as follows: PI 80 mg/kg, PIA 80 mg/kg, ibuprofen 40 mg/kg (all three are equimolar). […] Group 1: vehicle (n=5-8) • 2. Group 2: ibuprofen (n=5-8) • 3. Group 3: phospho-ibuprofen (PI) (n=5-8) • 4. Group 4: phospho-ibuprofen-amide (PIA) (n=5-8)

[5] = test system: mice with chronic constriction injury of the left sciatic nerve (PTPN); experiment: von Frey PWT, chronic constriction injury (CCI) model of PTPN, topical compounds; format: in vivo, mouse; details: for PWT, g mean ± SEM, Day 14: NOSH-1, LXIX, LXX 5% on left hind paw 3x/day 14 days; for PWT, g Mean ± SEM, Baseline: group value following ligation, prior to treatment
Protocol: The PWT test was performed following ligation, but prior to treatment to determine baseline values. The PWT was then further measured on day 14.

[6] = test system: mice with NTG-induced migraine; experiment: von Frey PWT, NTG-induced migraine model, oral or intraperitoneal compounds; format: in vivo, mouse; details: oral 30 min after NTG: PS 50, sulindac 33, PN 65, naproxen 35 mg/kg; 30 min after administration
Protocol: Phosphonaproxen (Formula VIII), and its parent compound, naproxen, were administered orally to each mouse group. All compounds were administered at equimolar doses. In particular, phosponaproxen was administered at 65 mg/kg, and naproxen was administered at 35 mg/kg, 30 minutes after NTG administration. The response of mechanical allodynia was tested 30 minutes after administration.

[7] = test system: mice with NTG-induced chronic migraine; experiment: von Frey PWT, NTG-induced chronic migraine model; format: in vivo, mouse; details: for PWT, g Mean ± SEM, Day 12 (pre-treatment): day 12 after first NTG dose, before compound administration; for PWT, g Mean ± SEM, Baseline: group baseline prior to NTG (Example 17)
Excerpt: The NTG-induced chronic migraine model was used as described previously.

STZ-diabetic rats = format: in vivo, rat; details: rat, in vivo
Excerpt: The animal model corresponds to that used for Example 4, but using a prevention protocol. As in Example 4, the outcome measure, determining the effect of the treatment on the prevention of mechanical allodynia, was the PWT test, using von Frey filaments. The measurements were taken at day −3, before treatment or induction of neuropathic pain associated with DPN, and again at the end of the study period (day 28).
The rats were randomised into treatment groups as follows, all having an average body weight of about 225 g. • 1. Group 1: naïve rats (n=6) • 2. Group 2: STZ only (n=8) • 3. Group 3: STZ plus vehicle (n=8) • 4. […] Group 5: STZ plus sulindac 0.7% (n=8) • 6. Group 6: STZ plus lidocaine cream 5% (n=8)
Each treatment group was subjected to a PWT assessment at day −3 in order to determine the baseline of mechanical allodynia.
For those rats in the lidocaine treatment group, lidocaine cream was applied only once to both hind paws of the rats 30 min before the final PWT measurement on day 28. On day 0, neuropathic pain associated with DPN was induced with the administration of STZ, and the blood glucose was checked on day 3.

[8] = drug levels in proximal and distal half of the sciatic nerve after topical PS; format: in vivo, mouse; details: mouse, in vivo
Protocol: In a separate experiment we studied 8 mice with paclitaxel-induced PN treated with PS 8% ointment 3×/d for 2 wks. Mice were euthanized as above 30 minutes after the last dose of PS. From these mice we harvested both sciatic nerves dividing each into proximal and distal halves, and combined the corresponding halves of every two animals for assay of drug levels.

Compound: CC(=O)Oc1ccccc1C(=O)O [Aspirin, aspirin, reference compound]
- PWT [1]: 0.69 ± 0.10 g

Compound: CC1=C(CC(=O)Oc2ccc(-c3cc(=S)ss3)cc2)c2cc(F)ccc2/C1=C\c1ccc([S+](C)[O-])cc1 (stereo not shown) [HS-sulindac]
- PWL, sec Mean ± SEM [2]: 9.9 ± 0.6 s
- PWT, g ([3]; D 2): D 2 = 0.90 ± 0.09 g
- PWT, g ([3]; D 4): D 4 = 1.10 ± 0.05 g
- PWT, g ([3]; D 13): D 13 = 1.23 ± 0.06 g
- PWT, g Mean ± SEM ([1]; paclitaxel 8 mg/kg x4, 5% topical both hind paws 3x/day 17 days): 0.99 ± 0.15 g

Compound: CC(C)Cc1ccc(C(C)C(=O)O)cc1 (stereo not shown) [Ibuprofen, ibuprofen, reference compound]
- PWT [3]: 0.53 ± 0.05 g
- PWT [1]: 0.60 ± 0.08 g
- PWT, g Mean ± SEM [4]: 0.58 ± 0.02 g

Compound: COc1ccc2cc(C(C)C(=O)Oc3ccc(C(N)=S)cc3)ccc2c1 (stereo not shown) [LXIX]
- PWT, g mean ± SEM, Day 14 [5]: 1.35 ± 0.23 g
- PWT, g Mean ± SEM, Baseline [5]: 0.55 ± 0.09 g
- PWT, g Mean ± SEM ([3]; LXIX 100 mg/kg oral gavage once a day 14 days, day 14): 0.93 ± 0.14 g
- PWT, g Mean ± SEM ([1]; LXIX 5% topical both hind paws 3x/day, Day 14): Day 14 = 0.86 ± 0.10 g
- PWT, g Mean ± SEM ([1]; LXIX 5% topical both hind paws 3x/day, Day 21): Day 21 = 1.20 ± 0.14 g

Compound: CC(C(=O)Oc1ccc(C(N)=S)cc1)c1cccc(C(=O)c2ccccc2)c1 (stereo not shown) [LXX]
- PWT, g mean ± SEM, Day 14 [5]: 1.28 ± 0.29 g
- PWT, g Mean ± SEM, Baseline [5]: 0.58 ± 0.07 g

Compound: O=C(CCCO[N+](=O)[O-])Oc1ccccc1C(=O)Oc1ccc(-c2cc(=S)ss2)cc1 [NOSH1, NOSH-aspirin]
- PWT, g mean ± SEM, Day 14 [5]: 2.00 ± 0.00 g
- PWT, g Mean ± SEM, Baseline [5]: 0.60 ± 0.00 g
- PWT, g ([3]; D 2): D 2 = 0.93 ± 0.17 g
- PWT, g ([3]; D 4): D 4 = 1.39 ± 0.15 g
- PWT, g ([3]; D 13): D 13 = 1.33 ± 0.11 g

Compound: COc1ccc2cc([C@H](C)C(=O)O)ccc2c1 [Naproxen, naproxen, reference compound]
- PWT, g Mean ± SEM ([3]; paclitaxel 8 mg/kg x4, oral gavage 3x/day 7 days: PS 50, sulindac 33, PN 65, naproxen 35 mg/kg, day 7): 0.53 ± 0.05 g
- PWT [1]: 0.61 ± 0.11 g
- PWT, g Mean ± SEM [6]: 0.56 ± 0.02 g

Compound: CCOP(=O)(OCC)OCC(COC(=O)C(C)c1ccc(CC(C)C)cc1)OP(=O)(OCC)OCC (stereo not shown) [PGI, phospho-glycerol-ibuprofen]
- PWT [3]: 1.60 ± 0.11 g

Compound: CCOP(=O)(OCC)OCC(CNC(=O)C(C)c1ccc(CC(C)C)cc1)OP(=O)(OCC)OCC (stereo not shown) [PGIA, phospho-glycerol-ibuprofen-amide]
- PWT, g Mean ± SEM ([1]; mouse, in vivo): 1.70 ± 0.25 g

Compound: CCOP(=O)(OCC)OCCCCOC(=O)C(C)c1ccc(CC(C)C)cc1 (stereo not shown) [PI, phospho-ibuprofen]
- PWT, g Mean ± SEM ([5]; PI, PN 5% on left hind paw 3x/day 14 days, day 14): 1.54 ± 0.19 g
- PWT [3]: 1.41 ± 0.23 g
- Paw-withdrawal threshold, g Mean ± SEM, Day 0 [1]: 0.64 ± 0.05 g
- Paw-withdrawal threshold, g Mean ± SEM, Day 14 ([1]; mouse, in vivo): 0.8 ± 0.07 g
- PWT, g Mean ± SEM [4]: 0.82 ± 0.07 g

Compound: CCOP(=O)(OCC)OCCCCNC(=O)C(C)c1ccc(CC(C)C)cc1 (stereo not shown) [PIA, phosphoibuprofen-amide]
- PWT [3]: 1.79 ± 0.40 g
- PWT ([4]; PIA 80 mg/kg oral 3x/day, day 5): 1.43 ± 0.19 g
- PWT, g Mean ± SEM [4]: 1.74 ± 0.12 g

Compound: CNS(=O)(=O)Cc1ccc2[nH]cc(CCN(C)C)c2c1 [Sumatriptan, sumatriptan]
- PWT, g Mean ± SEM, Day 12 (pre-treatment) [7]: 0.57 ± 0.02 g
- PWT, g Mean ± SEM, Baseline [7]: 1.90 ± 0.06 g

Compound: CC1(C)O[C@@H]2[C@@H](CO[C@@]3(COS(N)(=O)=O)OC(C)(C)O[C@@H]23)O1 [Topiramate, topiramate]
- PWT, g Mean ± SEM, Day 12 (pre-treatment) [7]: 0.60 ± 0.00 g
- PWT, g Mean ± SEM, Baseline [7]: 2.40 ± 0.24 g

Compound: CCOP(=O)(OCC)OCC(COC(=O)c1ccccc1OC(C)=O)OP(=O)(OCC)OCC (stereo not shown) [glycero-phospho-aspirin II]
- Paw-withdrawal threshold, g Mean ± SEM, Day 0 [1]: 0.66 ± 0.05 g
- Paw-withdrawal threshold, g Mean ± SEM, Day 14 ([1]; mouse, in vivo): 0.69 ± 0.06 g

Compound: CCN(CC)CC(=O)Nc1c(C)cccc1C [lidocaine]
- von Frey, gm mean ± SEM (STZ-diabetic rats): 34.3 ± 1.6 gm

Compound: CC1=C(CC(=O)O)c2cc(F)ccc2/C1=C\c1ccc(S(C)(=O)=O)cc1 [sulindac sulfone]
- Fold difference distal vs proximal [8]: 4.5

Compound: NO-aspirin
- PWT, g Mean ± SEM ([1]; paclitaxel 8 mg/kg x4, 5% topical both hind paws 3x/day, Day 8): 1.47 ± 0.08 g

Compound: platinum-sulindac [Pt-sulindac]
- PWT, g ([3]; D 2): D 2 = 1.01 ± 0.17 g
- PWT, g ([3]; D 4): D 4 = 1.03 ± 0.19 g
- PWT, g ([3]; D 13): D 13 = 1.34 ± 0.07 g
